# Experiments:
# [1] = system: TM-1 cells (human trabecular meshwork cell line); assay: Test for evaluation of effect of morphological change on trabecular meshwork cells (cell shape index); format: cell-based; conditions: 10 μM, 24 hours, control CSI 0.679, lower CSI indicates greater morphological change
# Protocol: As a method for evaluating a cellular morphological change, an evaluation system using the cell shape index (hereinafter referred to as “CSI”) as an index has been reported in The Journal of Clinical Investigation, 103, 1141-1150 (1999). Therefore, according to the method described in the above document, an effect of morphological change by the present compounds on trabecular meshwork cells was evaluated.
# A human trabecular meshwork cell line (hereinafter referred to as “TM-1 cells”) reported in Investigative Opthalmology & Visual Science, 43, 151-161 (2002) was used.
# Culture medium 1: A reagent was prepared by adding fetal bovine serum (10%), L-glutamine (2 mM), amphotericin B (2.5 μg/mL), and gentamicin (25 μg/mL) to Dulbecco's Modified Eagle Medium (hereinafter referred to as “D-MEM”).
# Culture medium 2: Fetal bovine serum (3%), L-glutamine (2 mM), amphotericin B (2.5 μg/mL), and gentamicin (25 μg/mL) were added to D-MEM.
# Cell staining liquid: A mixed liquid of Calcein-AM (16 μM) and Hoechst 33342 (40 μM) was prepared by diluting a Calcein-AM solution (cytoplasmic staining reagent, manufactured by Dojindo Laboratories) and a Hoechst 33342 solution (nuclear staining reagent, manufactured by Dojindo Laboratories) with D-MEM containing L-glutamine (2 mM), amphotericin B (2.5 μg/mL), and gentamicin (25 μg/mL).
# TM-1 cells subcultured at 37° C. in a 8% carbon dioxide gas atmosphere were treated with a trypsin/EDTA solution (0.05% trypsin and 0.53 mM tetrasodium ethylenediaminetetraacetate) at 24 hours before performing a drug treatment mentioned below and seeded on a 96-well culture plate. The culture medium 1 was used for the subculture of the cells. The culture medium 2 was used for the cell culture after seeding the cells on the plate.
# A test compound was dissolved in dimethyl sulfoxide, whereby a 5 mM solution was prepared. Then, the resulting solution was diluted with the culture medium 2, whereby a 200 μM test compound solution was prepared.
# It has been reported that Y-27632 which is a Rho kinase inhibitor induces a morphological change in trabecular meshwork cells in Investigative Opthalmology & Visual Science, 42, 137-144 (2001). Therefore, Y-27632 (produced according to the method described in WO 90/05723) was used as a positive control, and dissolved in dimethyl sulfoxide in the same manner as the test compound, whereby a 5 mM solution was prepared, and then, the resulting solution was diluted with the culture medium 2, whereby a 200 μM positive control compound solution was prepared.
# 1) To a 96-well culture plate, a solution of TM-1 cells adjusted to a cell density of […] was added in an amount of 95 μL (1.5×10^4 cells) per well.
# 2) Incubation was performed at 37° C. in a 8% carbon dioxide gas atmosphere for 24 hours.
# 3) The test compound solution or positive control compound solution was added in an amount of 5 μL per well (the final concentration of the test compound or positive control compound was 10 μM). As a control, the culture medium 2 containing dimethyl sulfoxide (4%) was added in an amount of 5 μL per well.
# 4) Incubation was performed at 37° C. in a 8% carbon dioxide gas atmosphere for 24 hours.
# 5) The cell staining liquid was added in an amount of 10 μL per well.
# 6) Incubation was performed at 37° C. in a 8% carbon dioxide gas atmosphere for 1 hour to stain the cells.
# 7) A 37% formaldehyde solution was added in an amount of 10 μL per well.
# 8) Incubation was performed at room temperature for 1 hour to fix the cells.
# 9) Washing with phosphate-buffered saline was performed.
# 10) Using Array Scan Vti HCS reader (manufactured by Cellomics), images of stained cells magnified with a 20-fold objective lens were captured in 80 fields (10 fields×8 wells) per test compound addition group.
# 11) CSI was calculated for each cell and an average value was obtained for each test compound addition group.
# CSI was calculated using the following equation.
# CSI=4π×(Cell Area)/(Cell Perimeter)^2
# [2] = system: HDAC (HeLa nuclear extract); assay: Test for evaluation of an HDAC inhibitory effect (HDAC Fluorimetric Assay/Drug Discovery Kit, Biomol); format: biochemical; conditions: final concentration of test compound 30 μM, rates of more than 100% are shown as 100%
# Protocol: Using HDAC Fluorimetric Assay/Drug Discovery Kit (manufactured by Biomol), an HDAC inhibitory effect of the present compounds was measured according to the protocol included with the kit. The kit contains Buffer, HeLa nuclear extract (includes an HDAC), Substrate, Developer and Trichostatin A (an HDAC inhibitor).
# A test compound was dissolved in dimethyl sulfoxide, whereby a 2 mg/mL solution was prepared. Then, the resulting solution was diluted with Buffer containing 5% dimethyl sulfoxide, whereby a 150 μM test compound solution was prepared.
# 1) To a 384-well culture plate, the test compound solution was added in an amount of 2 μL per well.
# 2) HeLa nuclear extract was diluted 30-fold with Buffer. The resulting solution was added in an amount of 3 μL per well and then, incubation was performed at 37° C. for 2 hours.
# 3) Substrate was diluted 500-fold with Buffer. The resulting solution was added in an amount of 5 μL per well (the final concentration of the test compound was 30 μM) and then, incubation was performed at 37° C. for 10 minutes.
# 4) Developer was diluted 20-fold with Buffer and Trichostatin A (2 μM) was added to it. The resulting solution was added in an amount of 10 μL per well and then, incubation was performed at room temperature for 15 minutes.
# 5) The fluorescence intensity of each well was measured using multilabel counter ARVO (manufactured by Wallac) with excitation at 360 nm and emission at 460 nm.
# 6) A control data was obtained from the same experiment except that Buffer containing 5% DMSO was added instead of the test compound solution as the above-mentioned procedure from 1) to 5).
# 7) A blank data was obtained from the same experiment except that Buffer containing 5% DMSO was added instead of the test compound solution and that Buffer was added instead of Hela nuclear extract as the above-mentioned procedure from 1) to 5).
# Enzyme inhibitory rate (%) was calculated using the following equation.
# (Enzyme Inhibitory Rate(%))=100×[1−{(Fluorescence Intensity of Test Compound Solution)−(Florescence Intensity of Blank)}/{(Florescence Intensity of Control)−(Florescence Intensity of Blank)}]
# [3] = system: male Japanese White rabbits; assay: Test for evaluation of intraocular pressure-lowering effect by intracameral administration; format: in vivo; conditions: 1 mM administration liquid, 20 μL intracameral, 8 or 9 hours after administration, vs vehicle control group, 6 cases
# Protocol: In order to evaluate an intraocular pressure-lowering effect of the present compounds, a test for evaluation of intraocular pressure-lowering effect by intracameral administration of a drug using male Japanese White rabbits was performed.
# A test compound was dissolved or suspended in physiological saline containing 0.5% dimethyl sulfoxide, whereby a 0.1 mM or 1 mM test compound administration liquid was prepared.
# One drop of 0.4% oxybuprocaine hydrochloride eye drop was instilled into both eyes of each male Japanese White rabbit to achieve local anesthesia, and thereafter, the intraocular pressure was measured using an applanation tonometer. Then, by using a syringe fitted with a 30-gauge needle, the test compound administration liquid (20 μL) was intracamerally administered to one eye. As a control, 20 μL of the vehicle (physiological saline containing 0.5% dimethyl sulfoxide) for the test compound was intracamerally administered. After the lapse of a certain period of time from the administration of the test compound or vehicle, one drop of 0.4% oxybuprocaine hydrochloride eye drop was instilled into the administered eye to achieve local anesthesia, and thereafter, the intraocular pressure was measured using an applanation tonometer.
# The intraocular pressure-lowering effect of each test compound was evaluated by calculating an intraocular pressure reduction rate. The intraocular pressure reduction rate (%) was calculated using the following equation.
# (Intraocular Pressure Reduction Rate(%))=100×[{(Average Value of Intraocular Pressure of Control Group)−(Average Value of Intraocular Pressure of Each Test Compound Administration Group)}/(Average Value of Intraocular Pressure of Control Group)]
Enzyme Inhibitory Rate (%) [2] [%],Compound,CSI [1],Intraocular Pressure Reduction Rate (%) [3] [%]
98,"CN(C)CCN(Cc1ccc(C(=O)Nc2ccccc2N)nc1)C(=O)Nc1nccs1 [Compound 1-96, N-(2-Aminophenyl)-5-[1-(2-dimethylaminoethyl)-3-(1,3-thiazol-2-yl)ureidomethyl]pyridine-2-carboxylic acid amide]",0.489,18
100,"CC(/C=C/C(=O)NO)=C\[C@@H](C)C(=O)c1ccc(N(C)C)cc1 [Trichostatin A, reference compound]",0.496,18
96,"Nc1ccccc1NC(=O)c1ccc(CNc2nccc(-c3cccnc3)n2)cc1 [MGCD-0103 free base, N-(2-Aminophenyl)-4-[4-(pyridin-3-yl)pyrimidin-2-ylaminomethyl]benzamide, reference compound]",0.584,23
99,"Nc1ccccc1NC(=O)c1ccc(CNC(=O)OCc2cccnc2)cc1 [MS 275, N-(2-Aminophenyl)-4-(pyridin-3-ylmethyloxycarbonylaminomethyl)benzamide, reference compound]",0.552,13
100,"Cc1cc(NC(=O)N(CCCN(C)C)Cc2ccc(C(=O)Nc3ccccc3N)nc2)ccc1F [Compound 1-14, N-(2-Aminophenyl)-5-[1-(3-dimethylaminopropyl)-3-(4-fluoro-3-methylphenyl)ureidomethyl]pyridine-2-carboxylic acid amide]",0.520,
98,"CCN(CC)CCCN(Cc1ccc(C(=O)Nc2ccccc2N)nc1)C(=O)Nc1ccc(F)c(F)c1 [Compound 1-46, N-(2-Aminophenyl)-5-[1-(3-diethylaminopropyl)-3-(3,4-difluorophenyl)ureidomethyl]pyridine-2-carboxylic acid amide]",0.547,
98,"CN(C)CCCN(Cc1ccc(C(=O)Nc2ccccc2N)nc1)C(=O)Nc1cccc(F)c1 [Compound 1-10, N-(2-Aminophenyl)-5-[1-(3-dimethylaminopropyl)-3-(3-fluorophenyl)ureidomethyl]pyridine-2-carboxylic acid amide]",0.528,
97,"Nc1ccccc1NC(=O)c1ccc(CN(CCCO)C(=O)Nc2ccc3c(c2)OCO3)cn1 [Compound 1-25, N-(2-Aminophenyl)-5-[3-(benzo[1,3]dioxol-5-yl)-1-(3-hydroxypropyl)ureidomethyl]pyridine-2-carboxylic acid amide]",0.571,
,"O=C(CCCCCCC(=O)Nc1ccccc1)NO [SAHA, N-Hydroxy-N′-phenyloctanediamide, reference compound]",0.501,17

# Source: US20100056522A1, “INTRAOCULAR PRESSURE-LOWERING AGENT COMPRISING COMPOUND HAVING HISTONE DEACETYLASE INHIBITOR EFFECT AS ACTIVE INGREDIENT” (Santen Pharmaceutical Co., Ltd., priority 2007, published 2010)
